Experimental data reported in PubChem BioAssay (NCI).
Several values for one entry are separate records, joined by “and”; a condition that tells them apart may be missing. Equal values may be shown once.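 Briefly, cells in 96-well plates were exposed to five compound concentrations for 48 h, and endpoints were estimated by linear interpolation. GI50 = concentration required for 50% inhibition of growth. TGI: total growth inhibition.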

How the values were obtained:
Assay in all cases: growth of human tumour cells (NCI), 48 h
HT29 colon = tested on: HT29 colon
SN12C renal = tested on: SN12C renal
OVCAR-8 ovarian = tested on: OVCAR-8 ovarian
ACHN renal = tested on: ACHN renal
HCT-116 colon = tested on: HCT-116 colon
U251 CNS = tested on: U251 CNS
UACC-257 melanoma = tested on: UACC-257 melanoma
LOX IMVI melanoma = tested on: LOX IMVI melanoma
MDA-MB-231 breast = tested on: MDA-MB-231 breast
T-47D breast = tested on: T-47D breast

SMILES	TGI (HT29 colon)	TGI (SN12C renal)	TGI (OVCAR-8 ovarian)	TGI (ACHN renal)	TGI (HCT-116 colon)	TGI (U251 CNS)	TGI (UACC-257 melanoma)	TGI (LOX IMVI melanoma)	GI50 (HT29 colon)	GI50 (U251 CNS)	GI50 (SN12C renal)	GI50 (OVCAR-8 ovarian)	GI50 (MDA-MB-231 breast)	TGI (MDA-MB-231 breast)	GI50 (ACHN renal)	GI50 (UACC-257 melanoma)	GI50 (LOX IMVI melanoma)	GI50 (T-47D breast)	TGI (T-47D breast)	GI50 (HCT-116 colon)
CN(C(=O)C12C3C4C1C1C2C3C41C(N)=O)C(C)(C)C (stereo not drawn)	> 100 µM	> 100 µM	> 100 µM	> 100 µM	> 100 µM	–	–	–	–	–	–	–	–	–	–	–	–	–	–	–
COc1ccc2c(c1)C(=O)c1ccc(OC)cc1C2=S	> 100 µM	> 100 µM	> 100 µM	> 100 µM	> 100 µM	61.7 µM	> 100 µM	> 100 µM	–	–	–	–	–	–	–	–	–	–	–	–
COc1cc(C(=O)c2c(-c3ccccc3)oc3c(OC)cccc23)cc(OC)c1OC	> 100 µM	> 100 µM	> 100 µM	> 100 µM	–	> 100 µM	> 100 µM	> 100 µM	0.0491 µM	0.0514 µM	0.257 µM	0.11 µM	0.203 µM	2 µM	0.0719 µM	28.3 µM	0.0536 µM	31.8 µM	> 100 µM	–
O=C1NNC2(C(=O)N1)c1ccccc1-c1ccccc12	> 10 µM	> 10 µM	> 10 µM	> 10 µM	> 10 µM	–	> 10 µM	> 10 µM	–	–	–	–	–	> 10 µM	–	–	–	–	> 10 µM	–
O=C1CCCCC1S(=O)(=O)c1ccccc1 (stereo not drawn)	> 100 µM	> 100 µM	> 100 µM	> 100 µM	> 100 µM	> 100 µM	> 100 µM	> 100 µM	–	–	–	–	–	–	–	–	–	–	–	–
C[C@@]12CCC(=O)c3coc(c31)C(=O)c1cc3c(cc12)C(=O)C=CC3=O	> 1 µM and 39.7 µM	> 1 µM and 30.7 µM	> 1 µM and 30.2 µM	> 1 µM and 30.3 µM	> 1 µM and 28.7 µM	> 1 µM and 52.9 µM	> 1 µM and 23.8 µM	> 1 µM and 20.9 µM	> 1 µM	> 1 µM	> 1 µM	> 1 µM	–	–	> 1 µM	> 1 µM	> 1 µM	–	–	> 1 µM
O=S(=O)(/C=C/c1ccc(F)cc1)Cc1ccc(CS(=O)(=O)/C=C/c2ccc(F)cc2)cc1	> 100 µM	> 100 µM	> 100 µM	> 100 µM	> 100 µM	> 100 µM	> 100 µM	> 100 µM	–	–	–	–	–	–	–	–	–	–	–	–
CCOC(C[C@H](O[Si](C)(C)C(C)(C)C)[C@H]1COC(=S)S1)OCC	41.9 µM	> 100 µM	> 100 µM	> 100 µM	> 100 µM	> 100 µM	> 100 µM	> 100 µM	–	–	–	–	–	–	–	–	–	–	–	–
COc1ccc2c(CN3CCCC[C@H]3C(=O)O)cc3cc4c(cc3c2c1)OCO4	1.85 µM	4.31 µM	11.7 µM	2.43 µM	–	5.4 µM	–	3.15 µM	0.374 µM	1.96 µM	1 µM	0.457 µM	0.799 µM	3.59 µM	0.46 µM	–	1.37 µM	2.05 µM	8.04 µM	–
CCCCOC(=O)N1CCN(/[N+]([O-])=N/Oc2ccc([N+](=O)[O-])cc2[N+](=O)[O-])CC1	> 100 µM	31.5 µM	> 100 µM	7.19 µM	3.53 µM	21.8 µM	29 µM	5.06 µM	4.67 µM	5.85 µM	11 µM	25.5 µM	2.31 µM	5.63 µM	2.53 µM	13.4 µM	2.27 µM	–	–	2.07 µM
C=C1CC2OC(=O)C(=C)C2C(O)C2C(=C)CCC12 (stereo not drawn)	15.1 µM	18.1 µM	18 µM	21.2 µM	14.5 µM	30.8 µM	18.8 µM	–	–	–	–	–	–	–	–	–	–	–	–	–
Cc1ccc2c(c1)-c1c3c(nn1-c1ccccc1)-c1ccccc1SC3O2 (stereo not drawn)	> 100 µM	–	> 100 µM	> 100 µM	> 100 µM	> 100 µM	> 100 µM	> 100 µM	–	–	–	–	–	–	–	–	–	–	–	–
COC(C(=O)NN)c1ccccc1 (stereo not drawn)	> 100 µM	> 100 µM	> 100 µM	> 100 µM	–	> 100 µM	> 100 µM	–	–	–	–	–	–	–	–	–	–	–	–	–
NC(=O)CN(CC(N)=O)C(N)=O	> 100 µM	–	> 100 µM	> 100 µM	> 100 µM	> 100 µM	> 100 µM	> 100 µM	–	–	–	–	–	–	–	–	–	–	–	–
O=C(c1ccc(Cl)cc1Cl)C1[C@H]2C(=O)N(c3ccc(Cc4ccc(N5C(=O)[C@@H]6ON(c7ccccc7)C(C(=O)c7ccc(Cl)cc7Cl)[C@@H]6C5=O)cc4)cc3)C(=O)[C@H]2ON1c1ccccc1 (stereo partly drawn)	> 50 µM	> 50 µM	> 50 µM	> 50 µM	> 50 µM	> 50 µM	> 50 µM	> 50 µM	–	–	–	–	–	–	–	–	–	–	–	–
N/N=C(/C(=O)Nc1cccc(Cl)c1)C(C(=O)c1ccc(O)cc1O)C1OC(=O)c2ccccc21 (stereo not drawn)	> 100 µM	> 100 µM	> 100 µM	> 100 µM	> 100 µM	> 100 µM	> 100 µM	> 100 µM	–	–	–	–	–	–	–	–	–	–	–	–
C=CCN=C(N/N=C/c1ccc([N+](=O)[O-])o1)NS(=O)(=O)c1cc(C(=O)Nc2ccc(Cl)cc2)c(Cl)cc1SC	> 100 µM	> 100 µM	> 20.7 µM	> 50.1 µM	4.04 µM	> 100 µM	> 59.9 µM	> 100 µM	5.81 µM	3.93 µM	2.63 µM	–	–	–	3.55 µM	4.28 µM	> 64.1 µM	5.96 µM	> 51.5 µM	0.935 µM
NNC(=O)C1CCC(=O)N1S(=O)(=O)c1ccccc1 (stereo not drawn)	> 100 µM	> 100 µM	> 100 µM	> 100 µM	> 100 µM	> 100 µM	> 100 µM	> 100 µM	–	–	–	–	–	–	–	–	–	–	–	–
CCOc1cc2c(C(=O)CC)c(O)ccc2o1	> 100 µM	> 100 µM	> 100 µM	> 100 µM	> 72.5 µM	> 100 µM	> 100 µM	> 100 µM	–	–	–	–	–	–	–	–	–	–	–	–
OC1(C23CC4CC(CC(C4)C2)C3)CSCC1(O)C12CC3CC(CC(C3)C1)C2 (stereo not drawn)	> 100 µM	> 100 µM	> 100 µM	–	> 100 µM	–	> 100 µM	–	–	–	–	–	–	–	–	–	–	–	–	–
Cc1cn(C2CC3C(COCN3O)O2)c(=O)[nH]c1=O (stereo not drawn)	> 100 µM	> 100 µM	> 100 µM	> 100 µM	> 100 µM	> 100 µM	> 100 µM	> 100 µM	–	–	–	–	–	–	–	–	–	–	–	–
